Where two headings read alike, the source gives them in different places.

This is an account of results in patent US10653676B2 (Dana-Farber Cancer Institute, Inc., priority 2010, dated 2020).

For test [1], the target named is T1, native USP1 (Homo sapiens, UniProt O94782).
T1 construct: endogenous in cells; host or cells: HeLa cell extract
As to the kind of experiment: HA-Ub-VS labelling of native USP1 in HeLa cell extracts. It is filed as biochemical. The settings on record: HeLa cell extracts pretreated 4 h, then Ub-VS 40 min at 30° C.; FIG. 7. The protocol:
FIG. 7 is a composite figure depicting preferential inhibition of the activity of native USP1/UAF1 by C527. HeLa cell extracts were incubated with ubiquitin-aldehyde (Ub-Ald, 5 μM) or C527 at indicated concentrations for 4 h, followed by the addition of 0.5 μM Ub-Vs for 40 min. The reaction was split into two aliquots and subjected to immunoblotting for HA or USP1, respectively.
The ability of C527 to inhibit the deubiquitinating activity of native USP1 complexes derived from human cells was determined next (FIG. 7). For this purpose, the HA-tagged ubiquitin-VS, an affinity reagent known to covalently modify and trap active DUB enzymes in cell extracts was used. Cell extracts prepared from HeLa cells were pretreated with increasing concentrations of C527 for 4 h, followed by the incubation with Ub-VS for 40 min at 30° C. The enzymatic activity of endogenous DUBs was indicated by the conjugation of Ub-VS, detected as HA-labeling (see FIG. 7, high molecular weight bands). […] Ub-VS conjugation was inhibited by ubiquitin-aldehyde (Ub-Ald), a non-specific inhibitor of DUBs (lane 3).

Test [2] concerns the target T2, USP1/UAF1 complex (Homo sapiens, UniProt O94782, G670A/G671A).
T2 construct: This modified full length USP1 clone was PCR amplified and subcloned into pFastBac-HT vectors; His tag (N); made in house; host or cells: Sf9 insect cells (baculovirus)
As to the kind of experiment: ubiquitin-AMC in vitro deubiquitination enzyme assay. The format is biochemical. The method, then: Purified USP1/UAF1 complex was incubated with 1 μM C527 or DMSO for indicated time, followed by the addition of Ub-AMC at 0.5 μM final concentration. The fluorescence at […] was measured to indicate the enzymatic activity of USP1. […] 5A.
The in vitro enzymatic assays were performed using purified proteins from Sf9 cells as described previously (Cohn et al.). The assays using ubiquitin-AMC (Ub-7-amido-4-methylcoumarin; Boston Biochem) as substrate was carried out in a reaction buffer containing 20 mM HEPES-KOH (pH 7.8), 20 mM NaCl, 0.1 mg/ml ovalbumin, 0.5 mM EDTA and 10 mM dithiothreitol. The fluorescence was measured by FluoStar Galaxy Fluorometer (BMG Labtech). For the Ub-vinylsulfone (VS) assay, the proteins were incubated with Ub-VS at 0.5 μM final concentration for 1 h at 30° C., followed by the immunoblotting analysis.
In order to develop a highly sensitive assay with easy readout for high throughput detection, the fluorogenic compound Ubiquitin-7-amido-4-methylcoumarin (AMC-Ub, Boston Biochem) was used as a substrate for USP1/UAF1 enzyme complex. USP1 catalyzes the cleavage of AMC-Ub, releasing free AMC moiety, which leads to increase in fluorescence emission at 460 nm (λex=380 nm). Dang et al. (1998) Biochemistry 37:1868-79. […] Initial enzyme assay development was performed in 96-well plates with 100 μl reaction volume containing 20 mM HEPES-KOH, 0.1 mg/ml ovalbumin (Sigma), 0.5 mM EDTA, and 10 mM DTT. 2.5 nM USP1/UAF1 enzyme complex was mixed with the reaction buffer, incubated at 37° C. for 10 minutes and then 0.3 μM AMC-Ub was added. Fluorescence was measured using a Fluostar Galaxy Fluorometer (BMG Labtech Inc.).
Hits from the initial screening were analyzed further in secondary screening. In this step, the compounds were re-tested for inhibition using the AMC-Ub in vitro enzyme assay. After reconfirming inhibition, different concentration range of the inhibitors were tested to show dose dependency of inhibition and IC50 calculation.

Test [3] deals with HeLa cells, integrated with the NHEJ reporter. As to the kind of experiment: NHEJ reporter assay. Particulars: same condition as HR assay; FIG. 8B. The format is cell-based, human. The protocol: FIG. 8 is a composite figure showing that C527 inhibits homologous recombination repair. […] U2OS-DRGFP cells were transfected with I-SCE-I and then exposed to C527 at the indicated concentration for 24 h. Cells were then subjected to flow cytometry analysis. The percentage of GFP positive cells was normalized by solvent vehicle treated group. […] HeLa cells, integrated with the NHEJ reporter, were treated with C527 and analyzed as described in (FIG. 8A). […] HeLa cells were pre-treated with DMSO or C527 at the indicated concentration and then exposed to camptothecin (CPT) for 1 hr. RAD51 foci were detected using immunofluorescence.
Disruption of FANCD2 monoubiquitination or of USP1 activity (Oestergaard V H, Langevin F, Kuiken H J, et al. Deubiquitination of FANCD2 is required for DNA crosslink repair. Mol Cell. 2007; 28:798-809; Kim J M, Parmar K, Huang M, et al. Inactivation of murine Usp1 results in genomic instability and a Fanconi anemia phenotype. Dev Cell. 2009; 16:314-320) results in decreased HR. A gene conversion assay was used to examine the effect of C527 on cellular HR activity (FIG. 8A).

Test [4] has as its system FANCD2-Ub and FANCI-Ub levels in HeLa cells. As to the kind of experiment: cell-based assay of monoubiquitinated FANCD2 and FANCI levels by immunoblotting. Also noted: species or system human. The settings on record: eight hours, increasing concentrations, FIG. 3. The protocol: Candidate USP1 inhibitors from initial and secondary screens were then used in cell-based assays to look for USP1 inhibition in vivo using levels of FANCD2-Ub and PCNA-Ub as biomarkers for inhibition. For the cell-based assay, cells were treated with the candidate compounds and levels of monoubiquitinated FANCD2 and PCNA were tested both with and without DNA damage. USP1 inhibition was detected as high level of endogenous monoubiquitinated FANCD2 and PCNA. For this assay HeLa and HEK293T cells were treated with selected concentrations of these compounds and grown in Dulbecco's modified Eagle's medium supplemented with 15% heat-inactivated fetal calf serum in a humidified 5% CO2 incubator at 37° C. Damage was induced by both UV irradiation using Stratalinker (Stratagene) and treatment with mitomycin C (MMC, Sigma). After cell lysis, levels of monoubiquitinated FANCD2 and PCNA in whole cell lysate was tested by immunoblotting with anti-FANCD2 antibody (sc-20022; Santa Cruz Biotechnology) and anti-PCNA antibody (sc-56; Santa Cruz Biotechnology). Protection from chromosome aberrations were also tested in UV/MMC-damaged cells treated with candidate USP1 inhibitors using standard chromosome breakage assay. Yang et al. (2001) Blood 98:3435-40. […]

T2 sequence (O94782 whole entry G670A/G671A): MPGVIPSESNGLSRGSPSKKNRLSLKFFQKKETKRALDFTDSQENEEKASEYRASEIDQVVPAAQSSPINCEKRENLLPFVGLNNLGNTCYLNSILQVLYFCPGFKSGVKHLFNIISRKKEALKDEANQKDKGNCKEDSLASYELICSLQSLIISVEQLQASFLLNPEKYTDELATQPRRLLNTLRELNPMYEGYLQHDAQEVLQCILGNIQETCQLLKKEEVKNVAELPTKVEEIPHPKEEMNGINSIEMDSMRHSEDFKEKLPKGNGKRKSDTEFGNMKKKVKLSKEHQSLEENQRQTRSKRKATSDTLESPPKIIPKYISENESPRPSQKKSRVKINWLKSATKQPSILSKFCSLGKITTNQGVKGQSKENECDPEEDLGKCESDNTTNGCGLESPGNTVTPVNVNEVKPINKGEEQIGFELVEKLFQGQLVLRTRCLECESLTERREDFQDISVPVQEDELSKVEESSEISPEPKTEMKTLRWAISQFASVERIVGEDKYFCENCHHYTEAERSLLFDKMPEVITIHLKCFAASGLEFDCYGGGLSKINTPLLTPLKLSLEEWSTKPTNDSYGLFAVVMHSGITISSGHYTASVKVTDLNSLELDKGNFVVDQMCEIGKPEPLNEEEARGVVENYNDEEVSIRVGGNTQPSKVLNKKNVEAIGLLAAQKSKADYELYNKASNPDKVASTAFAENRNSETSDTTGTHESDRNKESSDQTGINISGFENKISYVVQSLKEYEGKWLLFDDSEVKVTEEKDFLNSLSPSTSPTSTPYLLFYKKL
T2 sequence (Q8TAF3 whole entry partner): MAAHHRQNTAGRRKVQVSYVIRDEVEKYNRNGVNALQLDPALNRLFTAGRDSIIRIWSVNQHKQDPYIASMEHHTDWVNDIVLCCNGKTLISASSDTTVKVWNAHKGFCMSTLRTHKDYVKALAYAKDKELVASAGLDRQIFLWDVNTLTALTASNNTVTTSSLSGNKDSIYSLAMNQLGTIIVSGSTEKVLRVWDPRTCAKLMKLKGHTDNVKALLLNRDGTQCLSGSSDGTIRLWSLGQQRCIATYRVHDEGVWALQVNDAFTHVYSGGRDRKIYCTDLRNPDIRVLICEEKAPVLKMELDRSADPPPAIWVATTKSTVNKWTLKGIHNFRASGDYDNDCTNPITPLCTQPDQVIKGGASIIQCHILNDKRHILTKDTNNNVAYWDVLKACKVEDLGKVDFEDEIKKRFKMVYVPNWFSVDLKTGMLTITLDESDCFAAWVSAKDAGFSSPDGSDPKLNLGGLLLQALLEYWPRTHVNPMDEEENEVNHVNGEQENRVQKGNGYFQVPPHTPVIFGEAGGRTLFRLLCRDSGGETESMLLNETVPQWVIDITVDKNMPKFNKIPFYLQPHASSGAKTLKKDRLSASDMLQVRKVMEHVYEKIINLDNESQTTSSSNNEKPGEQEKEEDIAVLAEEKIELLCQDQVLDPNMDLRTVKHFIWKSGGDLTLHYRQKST
T1 sequence (O94782 whole entry): as the sequence (O94782 whole entry G670A/G671A) above, with A670G, A671G counted along it
T1 sequence (Q8TAF3 whole entry partner): as the sequence (Q8TAF3 whole entry partner) above

For the molecule `O=C1c2ccccc2C(=O)c2oc(-c3ccc(F)cc3)nc21` [Formula IV (527)], in test [1], the “USP1 binding to Ub-VS” value was “did inhibit USP1 binding to Ub-VS in the same reaction in a dose-dependent manner”. Moreover, the IC50 in test [2] (4 hour preincubation, AMC-Ub in vitro enzyme assay, read-out: IC50) was found to be 0.134 µM; in test [2] (ubiquitin-AMC substrate, FIG. 5C, read-out: IC50 of C527 for the USP1/UAF1 complex), 0.88 ± 0.03 µM. In test [2] (single dose 1 uM, variable time periods, FIG. 5A), the “inhibition of DUB activity (fluorescence) with pretreatment time” value is listed as “serial increase in inhibition of DUB activity”. The “DUB activity with increasing dose” value in test [2] (treatment for 2 h, 0.5 to 2 μM, FIG. 5B) is recorded as “dose-dependent decrease in DUB activity”. The “non-homologous end joining (NHEJ) activity” value in test [3] is “did not inhibit”. Moreover, the FANCD2-Ub levels entry in test [4] is “dose-dependent increase”. The FANCI-Ub levels result in test [4] was “dose-dependent increase”.
